Assay results reported in ChEMBL document CHEMBL1201862, “PubChem BioAssay data set” (2004).
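Each compound was tested at five concentrations against cells in 96-well plates for 48 hours. GI50: concentration for 50% inhibition of growth.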 Activity calls are given as the source filed them. Rule as the data show it: active = GI50 up to about 1.1 µM and inactive = higher.

Tests used:
Experiment in all cases: NCI-60 cell line screen, 48 h
[1] = tested on: SNB-75
[2] = tested on: MDA-MB-435
[3] = tested on: NCI-H522
[4] = tested on: M14
[5] = tested on: MCF7
[6] = tested on: U-251
[7] = tested on: Hs-578T
[8] = tested on: MOLT-4
[9] = tested on: SK-MEL-2
[10] = tested on: 786-0
[11] = tested on: SF-295
[12] = tested on: KM12
[13] = tested on: Malme-3M
[14] = tested on: DU-145
[15] = tested on: HCT-116
[16] = tested on: A549
[17] = tested on: RPMI-8226
[18] = tested on: T47D
[19] = tested on: CAKI-1
[20] = tested on: HL-60
[21] = tested on: SR
[22] = tested on: NCI-H226
[23] = tested on: NCI-H460
[24] = tested on: SF-268
[25] = tested on: RXF 393
[26] = tested on: SW-620
[27] = tested on: UACC-257
[28] = tested on: HT-29
[29] = tested on: OVCAR-4
[30] = tested on: BT-549
[31] = tested on: SK-MEL-5
[32] = tested on: PC-3
[33] = tested on: HCC 2998
[34] = tested on: A498
[35] = tested on: OVCAR-5
[36] = tested on: ACHN
[37] = tested on: UACC-62
[38] = tested on: LOX IMVI
[39] = tested on: OVCAR-8
[40] = tested on: NCI-H23
[41] = tested on: COLO 205
[42] = tested on: CCRF-CEM
[43] = tested on: HOP-62
[44] = tested on: K562
[45] = tested on: HOP-92
[46] = tested on: OVCAR-3
[47] = tested on: MDA-N
[48] = tested on: SN12C
[49] = tested on: SF-539
[50] = tested on: MDA-MB-231
[51] = tested on: HCT-15
[52] = tested on: SNB-19
[53] = tested on: SK-MEL-28
[54] = tested on: IGROV-1
[55] = tested on: NCI/ADR-RES
[56] = tested on: EKVX
[57] = tested on: SK-OV-3
[58] = tested on: TK-10
[59] = tested on: UO-31

Compound: C#C/C=C/CC1OC(C(Br)CC)CC(Br)C2CC1O2 (stereo unspecified)
- GI50 [1]: 52.1 µM (inactive)
- GI50 [2]: 86.5 µM (inactive)
- GI50 [3]: 2.58 µM (inactive)
- GI50 [4]: > 100 µM (inactive)
- GI50 [5]: 40.2 µM (inactive)
- GI50 [6]: 78 µM (inactive)
- GI50 [7]: 87.9 µM (inactive)
- GI50 [8]: 29.4 µM (inactive)
- GI50 [9]: > 100 µM (inactive)
- GI50 [10]: 7.69 µM (inactive)
- GI50 [11]: > 100 µM (inactive)
- GI50 [12]: 60.5 µM (inactive)
- GI50 [13]: 11.3 µM (inactive)
- GI50 [14]: > 100 µM (inactive)
- GI50 [15]: 30.6 µM (inactive)
- GI50 [16]: 68.7 µM (inactive)
- GI50 [17]: 27.1 µM (inactive)
- GI50 [18]: 75.3 µM (inactive)
- GI50 [19]: > 100 µM (inactive)
- GI50 [20]: 34.1 µM (inactive)
- GI50 [21]: 34.6 µM (inactive)
- GI50 [22]: > 100 µM (inactive)
- GI50 [23]: > 100 µM (inactive)
- GI50 [24]: > 100 µM (inactive)
- GI50 [25]: 48.6 µM (inactive)
- GI50 [26]: 34.8 µM (inactive)
- GI50 [27]: > 100 µM (inactive)
- GI50 [28]: 42.6 µM (inactive)
- GI50 [29]: 37.8 µM (inactive)
- GI50 [30]: 38.9 µM (inactive)
- GI50 [31]: 89.3 µM (inactive)
- GI50 [32]: 45.6 µM (inactive)
- GI50 [33]: 56 µM (inactive)
- GI50 [34]: > 100 µM (inactive)
- GI50 [35]: > 100 µM (inactive)
- GI50 [36]: 39.4 µM (inactive)
- GI50 [37]: 56.2 µM (inactive)
- GI50 [38]: 1.71 µM (inactive)
- GI50 [39]: 61.1 µM (inactive)
- GI50 [40]: > 100 µM (inactive)
- GI50 [41]: 82 µM (inactive)
- GI50 [42]: 38.6 µM (inactive)
- GI50 [43]: 85.7 µM (inactive)
- GI50 [44]: 29 µM (inactive)
- GI50 [45]: 22.8 µM (inactive)
- GI50 [46]: 38.5 µM (inactive)
- GI50 [47]: 80.5 µM (inactive)
- GI50 [48]: 63.7 µM (inactive)
- GI50 [49]: > 100 µM (inactive)
- GI50 [50]: > 100 µM (inactive)
- GI50 [51]: 40.7 µM
- GI50 [52]: > 100 µM (inactive)
- GI50 [53]: 42.1 µM (inactive)
- GI50 [54]: 3.25 µM (inactive)
- GI50 [55]: 19.1 µM (inactive)
- GI50 [56]: 40.6 µM (inactive)
- GI50 [57]: 40.9 µM (inactive)
- GI50 [58]: > 100 µM (inactive)

Compound: CCCCON1C[C@H](OC(C)=O)C(OC(C)=O)[C@H](OC(C)=O)C1 (stereo partly specified)
- GI50 [1]: > 100 µM (inactive)
- GI50 [2]: > 100 µM (inactive)
- GI50 [3]: > 100 µM (inactive)
- GI50 [4]: > 100 µM (inactive)
- GI50 [5]: > 100 µM (inactive)
- GI50 [6]: > 100 µM (inactive)
- GI50 [7]: > 100 µM (inactive)
- GI50 [8]: > 100 µM (inactive)
- GI50 [9]: > 100 µM (inactive)
- GI50 [10]: > 100 µM (inactive)
- GI50 [11]: > 100 µM (inactive)
- GI50 [12]: > 100 µM (inactive)
- GI50 [13]: > 100 µM (inactive)
- GI50 [14]: > 100 µM (inactive)
- GI50 [15]: > 100 µM (inactive)
- GI50 [16]: > 100 µM (inactive)
- GI50 [17]: > 100 µM (inactive)
- GI50 [18]: > 100 µM (inactive)
- GI50 [19]: > 100 µM (inactive)
- GI50 [20]: > 100 µM (inactive)
- GI50 [21]: > 100 µM (inactive)
- GI50 [22]: > 100 µM (inactive)
- GI50 [23]: > 100 µM (inactive)
- GI50 [24]: > 100 µM (inactive)
- GI50 [25]: > 100 µM (inactive)
- GI50 [26]: > 10 µM (inactive)
- GI50 [27]: > 100 µM (inactive)
- GI50 [28]: > 100 µM (inactive)
- GI50 [29]: 7.14 µM (inactive)
- GI50 [30]: > 100 µM (inactive)
- GI50 [31]: > 100 µM (inactive)
- GI50 [59]: > 100 µM (inactive)
- GI50 [32]: > 100 µM (inactive)
- GI50 [33]: > 100 µM (inactive)
- GI50 [34]: > 100 µM (inactive)
- GI50 [36]: > 100 µM (inactive)
- GI50 [37]: > 100 µM (inactive)
- GI50 [38]: > 100 µM (inactive)
- GI50 [39]: > 100 µM (inactive)
- GI50 [40]: > 100 µM (inactive)
- GI50 [41]: > 100 µM (inactive)
- GI50 [42]: > 100 µM (inactive)
- GI50 [43]: > 100 µM (inactive)
- GI50 [44]: > 100 µM (inactive)
- GI50 [45]: > 100 µM (inactive)
- GI50 [46]: > 100 µM (inactive)
- GI50 [47]: > 100 µM (inactive)
- GI50 [48]: > 100 µM (inactive)
- GI50 [49]: > 100 µM (inactive)
- GI50 [50]: > 100 µM (inactive)
- GI50 [51]: > 100 µM
- GI50 [52]: > 100 µM (inactive)
- GI50 [53]: > 100 µM (inactive)
- GI50 [54]: > 100 µM (inactive)
- GI50 [55]: > 100 µM (inactive)
- GI50 [56]: > 100 µM (inactive)
- GI50 [57]: > 100 µM (inactive)
- GI50 [58]: > 100 µM (inactive)
